Experimental data taken from patent US20230210771A1, “COMPOSITIONS FOR THE DELIVERY OF THERAPEUTIC AGENTS AND METHODS OF USE AND MAKING THEREOF” (priority 2020, published 2023).

Experiment: Terpene concentration (HPLC, GC-FID)
Assay type: physicochemical
Conditions: terpene content of hemp distillate + alpha-pinene lipid nanoparticle formulation (Example 34), diluted to theoretical 12 mg/mL CBD
Protocol: A 5 Liter manufacturing batch was analyzed by high pressure liquid chromatography (HPLC) to measure Terpenes present in the sample.
When all ingredients were dissolved, the solvent was removed to form a dried composition. The resulting particle size and zeta potential were determined using a Malvern ZetaSizer and cannabinoid concentrations were determined by UPLC. Terpene concentrations were determined by GC-FID.

Q: With C=C1CCC2CC1C2(C)C (stereo not drawn) [beta-Pinene] as the compound, how does the “Measured Concentration (mg/g) of terpene” value read?
A: 0.026 mg/g

Q: And the “Measured Concentration (w/w %) of terpene” value?
A: 0.003%

Q: Which “Measured Concentration (mg/g) of terpene” value does the source give for C=C1CC[C@H]2O[C@]2(C)CC[C@@H]2[C@@H]1CC2(C)C [Caryophyllene Oxide] here?
A: <LOQ

Q: What about the “Measured Concentration (w/w %) of terpene” value of the same compound?
A: <LOQ

Q: For CC1=CCC2CC1C2(C)C (stereo not drawn) [alpha-Pinene], which “Measured Concentration (mg/g) of terpene” value is on record?
A: 5.205 mg/g

Q: And the “Measured Concentration (w/w %) of terpene” value?
A: 0.521%

Q: With CC1=CCC(C(C)C)=CC1 [y-Terpinene] as the compound, how does the “Measured Concentration (mg/g) of terpene” value read?
A: <LOQ

Q: And the “Measured Concentration (w/w %) of terpene” value?
A: <LOQ

Q: What does the source list for C/C1=C\CC/C(C)=C/CC(C)(C)/C=C/C1 [Humulene]?
A: Measured Concentration (mg/g) of terpene: <LOQ; Measured Concentration (w/w %) of terpene: <LOQ

Q: What does the source list for C=C1CC/C=C(\C)CC[C@@H]2[C@@H]1CC2(C)C [Beta-Caryophyllene]?
A: Measured Concentration (mg/g) of terpene: 0.026 mg/g; Measured Concentration (w/w %) of terpene: 0.003%

Q: Which “Measured Concentration (mg/g) of terpene” value does the source give for C=CC(C)(O)CC/C=C(/C)CCC=C(C)C (stereo not drawn) [cis-Nerolidol] here?
A: <LOQ

Q: And the “Measured Concentration (w/w %) of terpene” value?
A: <LOQ

Q: For CC1=CCC2C(C1)C2(C)C (centres unmarked) [Carene], which “Measured Concentration (mg/g) of terpene” value is on record?
A: <LOQ

Q: What about the “Measured Concentration (w/w %) of terpene” value of the same compound?
A: <LOQ

Q: Which “Measured Concentration (mg/g) of terpene” value does the source give for C=CC(C)(O)CCC=C(C)C (centres unmarked) [Linalool] here?
A: <LOQ

Q: What about the “Measured Concentration (w/w %) of terpene” value of the same compound?
A: <LOQ

Q: What does the source list for CC1=CCC(=C(C)C)CC1 [Terpinolene]?
A: Measured Concentration (mg/g) of terpene: <LOQ; Measured Concentration (w/w %) of terpene: <LOQ

Q: With CC(C)=CCC[C@](C)(O)[C@@H]1CC=C(C)CC1 [alpha-Bisabolol] as the compound, how does the “Measured Concentration (mg/g) of terpene” value read?
A: 0.062 mg/g

Q: And the “Measured Concentration (w/w %) of terpene” value?
A: 0.006%

Q: For C[C@H]1CC[C@@H](C(C)(C)O)CC2=C1CC[C@@H]2C [alpha-Guaiol], which “Measured Concentration (mg/g) of terpene” value is on record?
A: 0.023 mg/g

Q: And the “Measured Concentration (w/w %) of terpene” value?
A: 0.002%

Q: For C=C/C(C)=C\CC=C(C)C [z-Ocimene], which “Measured Concentration (mg/g) of terpene” value is on record?
A: <LOQ

Q: And the “Measured Concentration (w/w %) of terpene” value?
A: <LOQ

Q: What does the source list for C=CC(=C)CCC=C(C)C [beta-Myrecene]?
A: Measured Concentration (mg/g) of terpene: <LOQ; Measured Concentration (w/w %) of terpene: <LOQ

Q: For C=CC(C)(O)CC/C=C(\C)CCC=C(C)C (stereo not drawn) [trans-Nerolidol], which “Measured Concentration (mg/g) of terpene” value is on record?
A: <LOQ

Q: And the “Measured Concentration (w/w %) of terpene” value?
A: <LOQ

Q: For C=C(C)[C@@H]1CC[C@@H](C)C[C@H]1O [Isopulegol], which “Measured Concentration (mg/g) of terpene” value is on record?
A: <LOQ

Q: What about the “Measured Concentration (w/w %) of terpene” value of the same compound?
A: <LOQ

Q: Which “Measured Concentration (mg/g) of terpene” value does the source give for C=C/C(C)=C/CC=C(C)C [e-Ocimene] here?
A: <LOQ

Q: What about the “Measured Concentration (w/w %) of terpene” value of the same compound?
A: <LOQ

Q: What does the source list for CC(C)=CCC/C(C)=C/CO [Geraniol]?
A: Measured Concentration (mg/g) of terpene: <LOQ; Measured Concentration (w/w %) of terpene: <LOQ

Q: Which “Measured Concentration (mg/g) of terpene” value does the source give for C=C1C2CCC(C2)C1(C)C (centres unmarked) [Camphene] here?
A: 0.046 mg/g

Q: And the “Measured Concentration (w/w %) of terpene” value?
A: 0.005%

Q: For Cc1ccc(C(C)C)cc1 [p-Cymene], which “Measured Concentration (mg/g) of terpene” value is on record?
A: <LOQ

Q: What about the “Measured Concentration (w/w %) of terpene” value of the same compound?
A: <LOQ

Q: With C=C(C)[C@H]1CC=C(C)CC1 [delta-Limonene] as the compound, how does the “Measured Concentration (mg/g) of terpene” value read?
A: <LOQ

Q: And the “Measured Concentration (w/w %) of terpene” value?
A: <LOQ

Q: For CC12CCC(CC1)C(C)(C)O2 [Eucalyptol], which “Measured Concentration (mg/g) of terpene” value is on record?
A: <LOQ

Q: What about the “Measured Concentration (w/w %) of terpene” value of the same compound?
A: <LOQ
